Experimental data as given in US20110098492A1, “CLEANING COMPOSITIONS CONTAINING MID-RANGE ALKOXYLATES” (priority 2008, published 2011).
Each block holds one substance with its values, some of them ahead of it.

How the values were obtained:
Cloud point = type: physicochemical
Daphna magna = assay: 48-hour acute toxicity to Daphnia; type: in vivo
Source text: The study procedures and test methods were based on the recommendations of the following guidelines: […]

Desmondesmus subspicatus = assay: Fresh water algal growth inhibition test (OECD 201); type: cell-based; settings: growth rate
Source text: Organization for Economic Cooperation and Development (OECD): OECD Guidelines for the Testing of Chemicals, “Freshwater Alga and Cyanobacteria, Growth Inhibition Test”, Procedure 201, adopted 23 Mar. 2006; European Economic Community (EEC): […] OECD Guidelines for the Testing of Chemicals, “Freshwater Alga and Cyanobacteria, Growth Inhibition Test”, Procedure 201, adopted 23 Mar. 2006; European Economic Community (EEC): […]

[1] = Gel range in water at 23 C; type: physicochemical; parameters: key: L = Liquid; G = Gel; TL = Thick Liquid
Protocol: One way the industry expresses a tendency of a surfactant to cause gels is a “gel range.” A typical gel range describes a percentage of samples that form gels, out of a number of samples, each having increasing surfactant concentration. […] A sample forms a gel when it is non-pourable for at least five seconds at 23° centigrade (° C.) when its container is inverted 180° so the container's open spout or mouth faces down. For many applications, a surfactant ideally has no gel range.
D) Gel range: Ten surfactant solutions are made using 0%, 10%, 20%, 30%, 40%, 50%, 60%, 70%, 80%, 90% water. […] The test is run at 23 C.

[2] = Pour point test (ASTM D97); type: physicochemical
Protocol: C) Pour Point Test: This test is carried out according to the protocol of ASTM Test D97.

[3] = Surface tension and critical micelle concentration (Wilhelmy plate); type: physicochemical; settings: for Surface Tension: 0.1 wt % in water; for Critical Micelle Concentration: in de-ionized water
Protocol: B) Surface Tension and Critical Micelle Concentration (CMC) Measurement. For this test the surface tension of a surfactant-water solution is measured while incrementally adding the surfactant to de-ionized water. Results are measured in terms of dyne/centimeters using a Wilhelmy plate. Results are recorded versus surfactant concentration. The Critical Micelle Concentration is the point at which an increase in surfactant concentration no longer results in a change in surface tension.

[4] = Formula stability with LAS, sodium citrate and water; type: physicochemical; parameters: key to Formula stability: S = Stable; U = Unstable
Source text: When mixed with dodecyl benzene sulfonic acid (sodium salt), and sodium citrate in water, the surfactants of the present invention show enhanced formula stability relative to conventional surfactants.

[5] = Ross-Miles foam height test (ASTM D1173); type: physicochemical; settings: for Ross Miles Foam Height, millimeters, Initial: Initial (0 sec)
Protocol: A) Ross-Miles Foam Height Test: This test is carried out according to the protocol of ASTM […].

- cloud point (Cloud point): 31.0 C
Substance: C9(PO)4(EO)5.5

- cloud point (Cloud point): 21.4 C
Substance: C9(BO)1(EO)5

- Gel Range, Percent Surfactant in Water at 23 C. ([1]; 10% surfactant in water): L
- Gel Range, Percent Surfactant in Water at 23 C. ([1]; 20% surfactant in water): L
- Gel Range, Percent Surfactant in Water at 23 C. ([1]; 30% surfactant in water): L
- Gel Range, Percent Surfactant in Water at 23 C. ([1]; 40% surfactant in water): L
- Gel Range, Percent Surfactant in Water at 23 C. ([1]; 50% surfactant in water): L
- Gel Range, Percent Surfactant in Water at 23 C. ([1]; 60% surfactant in water): L
- Gel Range, Percent Surfactant in Water at 23 C. ([1]; 70% surfactant in water): L
- Gel Range, Percent Surfactant in Water at 23 C. ([1]; 80% surfactant in water): L
- Gel Range, Percent Surfactant in Water at 23 C. ([1]; 90% surfactant in water): L
- Pour Point [2]: 50 ° F.
- Surface Tension [3]: 32 dyne/centimeters
- Critical Micelle Concentration [3]: 2400 ppm
- Ross Miles Foam Height, millimeters, 5 Minutes [5]: 5 millimeters
- Ross Miles Foam Height, millimeters, Initial [5]: 115 millimeters
Substance: 2EH(PO)3(EO)6.8 [Example 2]

Continued, substance first:

Substance: C9(BO)1(EO)6
- cloud point (Cloud point): 38.5 C

Substance: 2EH(PO)5(EO)3 [Example 6]
- 48-hour Acute Toxicity to Daphna magna (EC50-50 hour) (Daphna magna): 33.6 µg/mL
- Fresh Water algal growth inhibition test with Desmondesmus subspicatus ErC50/0-3 (Desmondesmus subspicatus): 31.9 mg/L

Substance: 2EH(PO)11(EO)11 [Example 5]
- Gel Range, Percent Surfactant in Water at 23 C. ([1]; 10% surfactant in water): L
- Gel Range, Percent Surfactant in Water at 23 C. ([1]; 20% surfactant in water): L
- Gel Range, Percent Surfactant in Water at 23 C. ([1]; 30% surfactant in water): L
- Gel Range, Percent Surfactant in Water at 23 C. ([1]; 40% surfactant in water): G
- Gel Range, Percent Surfactant in Water at 23 C. ([1]; 50% surfactant in water): G
- Gel Range, Percent Surfactant in Water at 23 C. ([1]; 60% surfactant in water): G
- Gel Range, Percent Surfactant in Water at 23 C. ([1]; 70% surfactant in water): G
- Gel Range, Percent Surfactant in Water at 23 C. ([1]; 80% surfactant in water): G
- Gel Range, Percent Surfactant in Water at 23 C. ([1]; 90% surfactant in water): L
- Pour Point [2]: 36 ° F.
- Surface Tension [3]: 30 dyne/centimeters
- Critical Micelle Concentration [3]: 300 ppm
- Formula stability ([4]; 15% LAS/0% Na Cit in water): S
- Formula stability ([4]; 15% LAS/1% Na Cit in water): S
- Formula stability ([4]; 15% LAS/2% Na Cit in water): S
- Formula stability ([4]; 15% LAS/4% Na Cit in water): U
- formula stability (in words) ([4]; cleaning formulations, without hydrotrope): stable
- Ross Miles Foam Height, millimeters, 5 Minutes [5]: 15 millimeters
- Ross Miles Foam Height, millimeters, Initial [5]: 75 millimeters

Substance: C9(PO)4(EO)6.8
- cloud point (Cloud point): 43.0 C

Substance: 2EH(PO)2(EO)4 [Example 1]
- Surface Tension [3]: 35 dyne/centimeters
- Critical Micelle Concentration [3]: 3300 ppm
- Ross Miles Foam Height, millimeters, 5 Minutes [5]: 5 millimeters
- Ross Miles Foam Height, millimeters, Initial [5]: 110 millimeters
